Experimental data from patent publication EP2832223A1, “HERBICIDAL COMPOSITION” (Ishihara Sangyo Kaisha, Ltd., priority 2012, dated 2013).

Experiments:
Assay type in all cases: in vivo
[1] = tested on: common cocklebur (Xanthium strumarium L.); assay: Test Example 1: pot test, foliar treatment, visual growth inhibition; settings: foliar treatment at 4.3 to 4.8-leaf stage, 22nd day after treatment, read-out: Growth inhibition rate (%) of common cocklebur Measured value
From the text: In the present invention, a synergistic effect means a higher herbicidal activity of three active ingredients combined, than the simple sum of the respective herbicidal activities of the three active ingredients (the expected activity). The activity expected by the combination of three active ingredients can be calculated as follows (Colby S.R., "Weed", vol. 15, p. 20-22, 1967). […] Upland field soil was put into a 1/300,000 ha pot, and seeds of common cocklebur (Xanthium strumarium L.) were sown. […] Click, manufactured by BASF) and EC formulation containing dimethenamid-P as an active ingredient (tradename: Spectrum, manufactured by BASF) were diluted with water (in an amount corresponding to 1,000 L/ha) and applied for foliar treatment by a small sprayer. On the 22nd day after treatment, the state of growth of the common cocklebur was visually observed to determine the growth inhibition rate (%) in accordance with the following evalution standard. The growth inhibition rate (%) (measured value) and the growth inhibition rate (%) (calculated value) calculated by the Colby's formula are shown in Table 1.

[2] = tested on: Japanese millet (Echinochloa utilis Ohwi et Yabuno); assay: Test Example 5: pot test, soil treatment, visual growth inhibition; settings: soil treatment, 28th day after treatment, read-out: Growth inhibition rate (%) of Japanese millet Measured value
Method: Upland field soil was put into a 1/300,000 ha pot, and seeds of Japanese millet (Echinochloa utilis Ohwi et Yabuno) were sown. On the next day, predetermined amounts of ONEHOPE NYUZAI (tradename), Click (tradename) and SC formulation containing topramezone as an active ingredient (tradename: Clio, manufactured by BASF) were diluted with water (in an amount corresponding to 1,000 L/ha) and applied for soil treatment by a small sprayer.
(§1) On the 28th day after treatment, the state of growth of the Japanese millet was visually observed to determine the growth inhibition rate (%). The growth inhibition rate (%) (measured value) and the growth inhibition rate (%) calculated in the same manner as in the above Test Example 1 are shown in Table 5.

[3] = tested on: prickly sida (Sida spinosa L.); assay: Test Example 10: pot test, soil treatment, visual growth inhibition; settings: soil treatment, 28th day after treatment, read-out: Growth inhibition rate (%) of prickly sida Measured value
Method: Upland field soil was put into a 1/300,000 ha pot, and seeds of prickly sida (Sida spinosa L.) were sown. On the next day, predetermined amounts of ONEHOPE NYUZAI (tradename), Click (tradename), Spectrum (tradename), Callisto (tradename) and Clio (tradename) were diluted with water (in an amount corresponding to 1,000 L/ha) and applied for soil treatment by a small sprayer.
as §1, with “prickly sida” for “Japanese millet”, “10.” for “5.”

[4] = tested on: Japanese millet (Echinochloa utilis Ohwi et Yabuno); assay: Test Example 13: pot test, soil and foliar treatment, visual growth inhibition; settings: soil treatment and foliar treatment, 28th day after treatment, read-out: Growth inhibition rate (%) of Japanese millet Measured value
Method: Upland field soil was put into a 1/1,000,000 ha pot, and seeds of Japanese millet (Echinochloa utilis Ohwi et Yabuno) were sown. When the Japanese millet reached 3.8 to 4.0-leaf stage, seeds of Japanese millet were further sown in the same pot. On the next day, predetermined amounts of ONEHOPE NYUZAI (tradename), Click (tradename) and a wettable powder containing bicyclopyrone prepared in accordance with a conventional formulation method were diluted with water (in an amount corresponding to 1,000 L/ha) and applied for soil treatment and for foliar treatment by a small sprayer.
as §1, with “13.” for “5.”

[5] = tested on: velvetleaf (Abutilon theophrasti Medic.); assay: Test Example 14: pot test, soil and foliar treatment, visual growth inhibition; settings: soil treatment and foliar treatment, 31st day after treatment, read-out: Growth inhibition rate (%) of velvetleaf Measured value
From the text: (§2) Upland field soil was put into a 1/1,000,000 ha pot, and seeds of velvetleaf (Abutilon theophrasti Medic.) were sown. When the velvetleaf reached 4.0 to 4.3-leaf stage, seeds of velvetleaf were further sown in the same pot assuming conditions such that weeds would later grow. On the next day, predetermined amounts of ONEHOPE NYUZAI (tradename), Click (tradename), Callisto (tradename), Mikado (tradename), a wettable powder containing bicyclopyrone as an active ingredient and Clio (tradename) were diluted with water in an amount corresponding to 300 L/ha and applied for soil treatment and for foliar treatment by a small sprayer.
as §1, with “31 st” for “28th”, “velvetleaf” for “Japanese millet”, “14.” for “5.”

[6] = tested on: velvetleaf (Abutilon theophrasti Medic.); assay: Test Example 16: pot test, soil and foliar treatment, visual growth inhibition; settings: soil treatment and foliar treatment, 29th day after treatment, read-out: Growth inhibition rate (%) of velvetleaf Measured value
From the text: as §2, with “Three days later,” for “On the next day,”
as §1, with “29th” for “28th”, “velvetleaf” for “Japanese millet”, “16.” for “5.”

[7] = tested on: guinea grass (Panicum maximum Jacq.); assay: Test Example 17: pot test, soil and foliar treatment, visual growth inhibition; settings: Megathyrsus maximus, 29th day after treatment, read-out: Growth inhibition rate (%) of guinea grass Measured value
Method: Upland field soil was put into a 1/1,000,000 ha pot, and seeds of guinea grass (Panicum maximum Jacq.) were sown. When the guinea grass reached 5.2 to 6.0-leaf stage, seeds of guinea grass were further sown in the same pot assuming conditions such that weeds would later grow. Three days later, predetermined amounts of ONEHOPE NYUZAI (tradename), Click (tradename) and Spectrum (tradename) were diluted with water in an amount corresponding to 300 L/ha and applied for soil treatment and for foliar treatment by a small sprayer.
as §1, with “29th” for “28th”, “guinea grass” for “Japanese millet”, “17.” for “5.”

Row | Structure (SMILES) | inhibition at 500 g/ha ([1]; 500 g/ha) [%] | inhibition at 500 g/ha ([2]; 500 g/ha) [%] | inhibition at 200 g/ha ([3]; 200 g/ha) [%] | inhibition at 2000 g/ha ([3]; 2000 g/ha) [%] | inhibition at 250 g/ha ([4]; 250 g/ha) [%] | inhibition at 400 g/ha ([5]; 400 g/ha) [%] | inhibition at 1200 g/ha ([5]; 1200 g/ha) [%] | inhibition at 500 g/ha ([6]; 500 g/ha) [%] | inhibition at 1000 g/ha ([6]; 1000 g/ha) [%] | inhibition at 500 g/ha ([7]; 500 g/ha) [%] | inhibition at 30 g/ha ([1]; 30 g/ha) [%] | inhibition at 30 g/ha ([2]; 30 g/ha) [%] | inhibition at 10 g/ha ([3]; 10 g/ha) [%] | inhibition at 100 g/ha ([3]; 100 g/ha) [%] | inhibition at 15 g/ha ([4]; 15 g/ha) [%] | inhibition at 20 g/ha ([5]; 20 g/ha) [%] | inhibition at 60 g/ha ([5]; 60 g/ha) [%] | inhibition at 30 g/ha ([6]; 30 g/ha) [%] | inhibition at 30 g/ha ([7]; 30 g/ha) [%]
1 | CCNc1nc(Cl)nc(NC(C)(C)C)n1 [Terbuthylazine, N^2-tert-butyl-6-chloro-N^4-ethyl-1,3,5-triazine-2,4-diamine] | 10 | 50 | 30 | 80 | 0 | 0 | 0 | 15 | 18 | 0 |  |  |  |  |  |  |  |  | 
2 | COc1cc(OC)nc(NC(=O)NS(=O)(=O)c2ncccc2C(=O)N(C)C)n1 [Nicosulfuron, 2-(4,6-dimethoxypyrimidin-2-ylcarbamoylsulfamoyl)-N,N-dimethylnicotinamide] |  |  |  |  |  |  |  |  |  |  | 0 | 40 | 20 | 40 | 55 | 3 | 11 | 0 | 38
